Experimental data published in patent publication US20160102073A1, “2-HYDROXYMETHYL-SUBSTITUTED OREXIN RECEPTOR ANTAGONISTS” (MERCK SHARP & DOHME CORP., priority 2013, published 2016).

Columns and labels:
[1] = target: T1, human orexin-2 receptor (hOX2R) (Homo sapiens, UniProt O43614); assay: FLIPR Ca2+ Flux Assay, CHO cells expressing hOX2R; type: cell-based; conditions: agonist 70 pM Ala-6,12 orexin-A
T1 construct: expressed in transfected cells; host or cells: Chinese hamster ovary (CHO) cells, grown under G418 selection
T1 sequence (O43614 1-444): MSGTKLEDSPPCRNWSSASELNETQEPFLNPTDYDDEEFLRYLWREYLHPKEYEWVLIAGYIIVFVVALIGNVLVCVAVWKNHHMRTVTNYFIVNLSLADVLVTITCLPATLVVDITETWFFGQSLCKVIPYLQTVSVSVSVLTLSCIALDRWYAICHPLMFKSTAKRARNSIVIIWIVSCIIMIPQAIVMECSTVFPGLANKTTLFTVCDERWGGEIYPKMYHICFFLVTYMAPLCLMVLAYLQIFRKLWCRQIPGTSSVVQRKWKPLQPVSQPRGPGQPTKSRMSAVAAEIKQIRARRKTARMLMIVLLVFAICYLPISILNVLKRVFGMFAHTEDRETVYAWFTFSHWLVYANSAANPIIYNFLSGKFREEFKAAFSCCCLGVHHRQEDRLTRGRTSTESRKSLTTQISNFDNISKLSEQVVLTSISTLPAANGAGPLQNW
Protocol: The utility of the compounds in accordance with the present invention as orexin receptor OX1R and/or OX2R antagonists may be readily determined without undue experimentation by methodology well known in the art, including the “FLIPR Ca^2+ Flux Assay” (Okumura et al., Biochem. Biophys. Res. Comm. 280:976-981, 2001). In a typical experiment the OX1 and OX2 receptor antagonistic activity of the compounds of the present invention was determined in accordance with the following experimental method. For intracellular calcium measurements, Chinese hamster ovary (CHO) cells expressing the rat orexin-1 receptor or the human orexin-2 receptor, are grown in Iscove's modified DMEM containing 2 mM L-glutamine, […], 1% hypoxanthine-thymidine supplement, 100 U/ml penicillin, 100 μg/ml streptomycin and 10% heat-inactivated fetal calf serum (FCS). The cells are seeded at 20,000 cells/well into Becton-Dickinson black 384-well clear bottom sterile plates coated with poly-D-lysine. All reagents were from GIBCO-Invitrogen Corp. The seeded plates are incubated overnight at 37° C. and 5% CO2. Ala-6,12 human orexin-A as the agonist is prepared as a 1 mM stock solution in 1% bovine serum albumin (BSA) and diluted in assay buffer (HBSS containing 20 mM HEPES, 0.1% BSA and 2.5 mM probenecid, pH7.4) for use in the assay at a final concentration of 70 pM. Test compounds are prepared as 10 mM stock solution in DMSO, then diluted in 384-well plates, first in DMSO, then assay buffer. On the day of the assay, cells are washed 3 times with 100 μl assay buffer and then incubated for 60 min (37° C., 5% CO2) in 60 μl assay buffer containing 1 μM Fluo-4AM ester, 0.02% pluronic acid, and 1% BSA. The dye loading solution is then aspirated and cells are washed 3 times with 100 μl assay buffer. 30 μl of that same buffer is left in each well. Within the Fluorescent Imaging Plate Reader (FLIPR, Molecular Devices), test compounds are added to the plate in a volume of 25 μl, incubated for 5 min and finally 25 μl of agonist is added. Fluorescence is measured for each well at 1 second intervals for 5 minutes and the height of each fluorescence peak is compared to the height of the fluorescence peak induced by 70 pM Ala-6,12 orexin-A with buffer in place of antagonist. For each antagonist, IC50 value (the concentration of compound needed to inhibit 50% of the agonist response) is determined. Alternatively, compound potency can be assessed by a radioligand binding assay (described in Bergman et. al. Bioorg. Med. Chem. Lett. 2008, 18, 1425-1430) in which the inhibition constant (Ki) is determined in membranes prepared from CHO cells expressing either the OX1 or OX2 receptor. The intrinsic orexin receptor antagonist activity of a compound which may be used in the present invention may be determined by these assays.
Chinese hamster ovary (CHO) cells expressing the human orexin-1 receptor (hOX1R) or the human orexin-2 receptor (hOX2R) were grown in Iscove's modified DMEM containing 2 mM L-glutamine, […], 1% hypoxanthine-thymidine supplement, 100 U/ml penicillin, 100 μg/ml streptomycin and 10% heat-inactivated fetal calf serum (FCS). The cells were seeded at 20,000 cells/well into Becton-Dickinson black 384-well clear bottom sterile plates coated with poly-D-lysine. All reagents were from GIBCO-Invitrogen Corp. The seeded plates were incubated overnight at 37° C. and 5% CO2. Ala-6,12 human orexin-A, used as the agonist, was prepared as a 1 mM stock solution in 1% bovine serum albumin (BSA) and diluted in assay buffer (HBSS containing 20 mM HEPES, 0.1% BSA and 2.5 mM probenecid, pH7.4) for use in the assay at a final concentration of 70 pM. Test compounds were prepared as 10 mM stock solution in DMSO, then diluted in 384-well plates, first in DMSO, then assay buffer. […]

[2] = target: T2, human orexin-1 receptor (hOX1R) (Homo sapiens, UniProt O43613); assay: FLIPR Ca2+ Flux Assay, CHO cells expressing hOX1R; type: cell-based; conditions: agonist 70 pM Ala-6,12 orexin-A
T2 construct: expressed in transfected cells; host or cells: Chinese hamster ovary (CHO) cells, grown under G418 selection
T2 sequence (O43613 1-425): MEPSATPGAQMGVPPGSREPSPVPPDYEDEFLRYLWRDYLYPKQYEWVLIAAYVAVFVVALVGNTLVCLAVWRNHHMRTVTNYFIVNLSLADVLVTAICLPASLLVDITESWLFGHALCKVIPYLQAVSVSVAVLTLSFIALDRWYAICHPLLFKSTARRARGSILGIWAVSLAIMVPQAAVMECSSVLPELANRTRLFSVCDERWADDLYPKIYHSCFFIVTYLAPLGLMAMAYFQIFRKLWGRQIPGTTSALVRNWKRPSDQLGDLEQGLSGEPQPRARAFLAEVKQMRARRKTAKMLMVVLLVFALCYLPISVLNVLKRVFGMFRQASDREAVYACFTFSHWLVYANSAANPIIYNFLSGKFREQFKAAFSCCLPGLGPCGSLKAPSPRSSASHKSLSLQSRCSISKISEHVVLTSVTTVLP
Protocol: Chinese hamster ovary (CHO) cells expressing the human orexin-1 receptor (hOX1R) or the human orexin-2 receptor (hOX2R) were grown in Iscove's modified DMEM containing 2 mM L-glutamine, […], 1% hypoxanthine-thymidine supplement, 100 U/ml penicillin, 100 μg/ml streptomycin and 10% heat-inactivated fetal calf serum (FCS). The cells were seeded at 20,000 cells/well into Becton-Dickinson black 384-well clear bottom sterile plates coated with poly-D-lysine. All reagents were from GIBCO-Invitrogen Corp. The seeded plates were incubated overnight at 37° C. and 5% CO2. Ala-6,12 human orexin-A, used as the agonist, was prepared as a 1 mM stock solution in 1% bovine serum albumin (BSA) and diluted in assay buffer (HBSS containing 20 mM HEPES, 0.1% BSA and 2.5 mM probenecid, pH7.4) for use in the assay at a final concentration of 70 pM. Test compounds were prepared as 10 mM stock solution in DMSO, then diluted in 384-well plates, first in DMSO, then assay buffer.
On the day of the assay, cells were washed 3× with 100 μl assay buffer and then incubated for 60 minutes (37° C., 5% CO2) in 60 μl assay buffer containing 1 μM Fluo-4AM ester, 0.02% pluronic acid, and 1% BSA. The dye loading solution was then aspirated and cells were washed 3× with 100 μl assay buffer. 30 μl of that same buffer was left in each well. Within the Fluorescent Imaging Plate Reader (FLIPR, Molecular Devices), test compounds were added to the plate in a volume of 25 μl, incubated for 5 minutes, and then 25 μl of agonist was added. Fluorescence was measured for each well at 1 second intervals for 5 minutes, and the height of each fluorescence peak was compared to the height of the fluorescence peak induced by 70 pM of Ala-6,12 orexin-A with buffer in place of test compound.

IC50 [1]	IC50 [2]	SMILES
81 nM	1990 nM	COc1ccnc(O[C@@H]2CC[C@@H](C)N(C(=O)c3cccc(F)c3-n3nccn3)C2)c1CO [Example 47, (3-Fluoro-2-(2H-1,2,3-triazol-2-yl)phenyl)((2R,5R)-5-((3-(hydroxymethyl)-4-methoxypyridin-2-yl)oxy)-2-methylpiperidin-1-yl)methanone]
110 nM	188 nM	CC(O)c1c(C(F)(F)F)ccnc1O[C@@H]1CC[C@@H](C)N(C(=O)c2ccccc2-n2nccn2)C1 (stereo partly drawn) [Example 38, 1-[2-{[(3R,6R)-6-Methyl-1-{[2-(2H-1,2,3-triazol-2-yl)phenyl]carbonyl}piperidin-3-yl]oxy}-4-(trifluoromethyl)pyridin-3-yl]ethanol]
98 nM	609 nM	C[C@@H]1CC[C@@H](Oc2ncccc2C(C)(C)O)CN1C(=O)c1cccc(F)c1-c1ncccn1 [Example 20, 2-[2-({(3R,6R)-1-[(3-fluoro-2-pyrimidin-2-yl-phenyl)carbonyl]-6-methyl-piperidin-3-yl}oxy)pyridin-3-yl]propan-2-ol]
27 nM	64 nM	C#C[C@@H](O)c1cccnc1O[C@@H]1CC[C@@H](C)N(C(=O)c2ccccc2-n2nccn2)C1 [Example 35, (1R)-1-(2-{[(3R,6R)-6-methyl-1-{[2-(2H-1,2,3-triazol-2-yl)phenyl]carbonyl}piperidin-3-yl]oxy}pyridin-3-yl)prop-2-yn-1-ol]
18 nM	55 nM	C[C@@H]1CC[C@@H](Oc2ncccc2[C@@H](O)C(F)(F)F)CN1C(=O)c1ccccc1-n1nccn1 [Example 37, (1R)-2,2,2-Trifluoro-1-(2-{[(3R,6R)-6-methyl-1-{[2-(2H-1,2,3-triazol-2-yl)phenyl]carbonyl}piperidin-3-yl]oxy}pyridin-3-yl)ethanol]
33 nM	46 nM	CC[C@@H](O)c1cccnc1O[C@@H]1CC[C@@H](C)N(C(=O)c2ccccc2-n2nccn2)C1 [Example 33, (1R)-1-(2-{[(3R,6R)-6-methyl-1-{[2-(2H-1,2,3-triazol-2-yl)phenyl]carbonyl}piperidin-3-yl]oxy}pyridin-3-yl) propan-1-ol]
24 nM	904 nM	C[C@@H]1CC[C@@H](Oc2ncccc2[C@H](O)C(F)(F)F)CN1C(=O)c1ccccc1-n1nccn1 [Example 36, (1S)-2,2,2-Trifluoro-1-(2-{[(3R,6R)-6-methyl-1-{[2-(2H-1,2,3-triazol-2-yl)phenyl]carbonyl}piperidin-3-yl]oxy}pyridin-3-yl)ethanol]

The remaining lines, values behind:

SMILES	IC50 [1]	IC50 [2]
C[C@@H]1CC[C@@H](Oc2ncccc2C(C)(C)O)CN1C(=O)c1ccccc1-c1ccccc1 [Example 8, 2-(2-{[(3R,6R)-1-(biphenyl-2-ylcarbonyl)-6-methylpiperidin-3-yl]oxy}pyridin-3-yl)propan-2-ol]	70 nM	124 nM
C[C@@H]1CC[C@@H](Oc2ncccc2C(C)(C)O)CN1C(=O)c1cc(CF)ccc1-n1nccn1 [Example 2, 2-(2-{[(3R,6R)-1-{[5-(Fluoromethyl)-2-(2H-1,2,3-triazol-2-yl)phenyl]carbonyl}-6-methylpiperidin-3-yl]oxy}pyridin-3-yl)propan-2-ol]	11 nM	30 nM
C[C@@H]1CC[C@@H](Oc2ncccc2C(C)(C)O)CN1C(=O)c1ccsc1-n1nccn1 [Example 18, 2-(2-{[(3R,6R)-6-methyl-1-{[2-(2H-1,2,3-triazol-2-yl)thiophen-3-yl]carbonyl}piperidin-3-yl]oxy}pyridin-3-yl)propan-2-ol]	9 nM	18 nM
COc1ccc(C(=O)N2C[C@H](Oc3ncccc3C(C)(C)O)CC[C@H]2C)c(C2CC2)c1 [Example 15, 2-[2-({(3R,6R)-1-[(2-cyclopropyl-4-methoxyphenyl)carbonyl]-6-methylpiperidin-3-yl}oxy)pyridin-3-yl]propan-2-ol]	148 nM	2300 nM
C[C@@H]1CC[C@@H](Oc2ncccc2C(C)(C)O)CN1C(=O)c1sccc1-n1nccn1 [Example 11, 2-(2-{[(3R,6R)-6-methyl-1-{[3-(2H-1,2,3-triazol-2-yl)thiophen-2-yl]carbonyl}piperidin-3-yl]oxy}pyridin-3-yl)propan-2-ol]	41 nM	148 nM
Cc1ccc(-n2nccn2)c(C(=O)N2C[C@H](Oc3ncccc3C(C)(C)O)CC[C@H]2C)c1 [Example 17, 2-(2-{[(3R,6R)-6-methyl-1-{[5-methyl-2-(2i-1,2,3-triazol-2-yl)phenyl]carbonyl}piperidin-3-yl]oxy}pyridin-3-yl)propan-2-ol]	37 nM	50 nM
C[C@@H]1CC[C@@H](Oc2ncccc2C(C)(C)O)CN1C(=O)c1cccc(F)c1-n1nccn1 [Example 3, 2-(2-{[(3R,6R)-1-{[3-fluoro-2-(2H-1,2,3-triazol-2-yl)phenyl]carbonyl}-6-methylpiperidin-3-yl]oxy}pyridin-3-yl)propan-2-ol]	35 nM	189 nM
